Measured values taken from ChEMBL document CHEMBL1139859, “Structures of pahayokolides A and B, cyclic peptides from a Lyngbya sp” (J Nat Prod, 2007).
Starred links: 1 amine or outer side, 2 acyl side, 3 side chain; linkers in the order of their positions; H or OH if unused. Positions of bridges follow the written chain, without caps; N, C: chain ends. Non-standard residues stand in square brackets, D forms with d. Residues, ends and D or L forms follow the SMILES beside them. ξ: configuration not given here. X2 = CC(=O)N(C)[C@@H](CC(C)C)C(=O)O[C@@H](CC(O)C(O)CC(C)C)CC(N[*:2])C(O)C(=O)[*:1]; hPhe = N[C@@H](CCc1ccccc1)C(=O)O; X1 = C/C=C(/N[*:1])C(=O)[*:2]; Dhb = C/C=C(\N)C(=O)O; ξT = CC(O)C(N)C(=O)O

What was measured:
SK-OV-3 = assay: Cytotoxicity against human SKOV3 cells; type: cell-based
CCRF-CEM = assay: Cytotoxicity against human CEM cells; type: cell-based
[1] = Cytotoxicity against human SKBR3 cells; type: cell-based; settings: SK-BR-3
NCI-H460 = assay: Cytotoxicity against human H460 cells; type: cell-based
A498 = assay: Cytotoxicity against human A498 cells; type: cell-based
U-251 = assay: Cytotoxicity against human U251 cells; type: functional, cell-based
SK-MEL-28 = assay: Cytotoxicity against human SK-MEL-28 cells; type: cell-based
HT-29 = assay: Cytotoxicity against human HT29 cells; type: cell-based

C/C=C1\NC(=O)[C@H](Cc2ccccc2)NC(=O)[C@@H]2CCCN2C(=O)CNC(=O)[C@H](CCC(N)=O)NC(=O)C(O)C(C[C@H](CC(O)C(O)CC(C)C)OC(=O)[C@H](CC(C)C)N(C)C(C)=O)NC(=O)[C@@H]2CCCN2C(=O)[C@H](CCc2ccccc2)NC(=O)C(C(C)O)NC(=O)/C(=C\C)NC(=O)[C@H](CO)NC1=O (stereo partly drawn) [PAHAYOKOLIDES A] (QGPF[Dhb]S[X1][ξT][hPhe]P; linker N-C via X2)
IC50 (SK-OV-3): 2.76 µM | IC50 (CCRF-CEM): 3.27 µM | IC50 [1]: 16.7 µM | IC50 (NCI-H460): 2.13 µM | IC50 (A498): 2.61 µM | IC50 (U-251): 13.3 µM | IC50 (SK-MEL-28): 5.74 µM | IC50 (HT-29): 44.6 µM
